Here are results for one substance from US20220409696A1, “Heparin-Associated Polypeptides and Uses Thereof” (Juvena Therapeutics, Inc., priority 2021, published 2022).

The subject of one series is DM1 human myoblast cells. Description: Fusion (% eMyHC area) of DM1 human myoblast. The class given is cell-based. To be noted: 96 h for fusion. Here is the method: FIG. 7A Bar graph of % EdU+ human myoblast (person) and FIG. 7B % area MyHC in response to IGF2. Myoblast were cultured 72 h for proliferation and 96 h for fusion in the presence of indicated factor. Mean∓S.D. Mean∓SD. Significant p-values (EdU: Vehicle˜IGF2: 6.8E-3, % eMyHC Area: Vehicle˜IGF2: 1.9E-4) (*p<0.05 by Students Two-Tailed T-test, n=3−6).
IGF2 was tested individually for its ability to promote proliferation and/or fusion of human muscle progenitor cells from an individual with myotonic dystrophy type 1 (hMD)—a muscular dystrophy caused by mutations in the DMPK1 gene. […] After 72 or 96 hours, cells were pulsed for 2-5 hours with EdU (30 uM), ethanol fixed, stained with Hoescht 3342, immunostained for proliferation—as measured by the percent of cells staining positive for EdU (% EdU)-, and immunostained for differentiation—as measured by the increase in cellular area staining positive for embryonic myosin heavy chain (% eMyHC) relative to the negative controls, which received media and vehicle only. Wells were imaged on a Keyence BZ-100 at 4×, the images quantified in Cell Profiler, and the statistics were computed in R. Additionally, RNA was extracted from myoblast and select transcript abundances quantified by qPCR. […]

Series [1] deals with 10 week old dystrophic mice (mdx). Description: D2-mdx Duchenne's muscular dystrophy model, 10 week old mice. It is filed as in vivo. To be noted: 150 ug/kg with 1.2 g/kg sodium butyrate subcutaneously every 24 hours, 14 days. On the procedure:
Between 3-6 weeks old, the skeletal muscle of mdx mice undergoes severe necrosis followed by an increase in the activation of satellite cells to promote muscle regeneration. Treatment with IGF2 fusion polypeptide described herein can improve the regeneration process and therefore muscle health. Mice were fed ad libitum and housed under controlled conditions of lighting (12-hour light/12-hour dark) and temperature (22-24° C.). Mice were allowed to acclimate for 3 days prior to the initiation of the experiment. During the acclimation period, the weight, forelimb and both limb grip strength as well as in vivo tetanic force were assessed to determine the baseline strength of each mouse. 10 week old dystrophic mice (mdx) were injected with the IGF2 fusion polypeptide with sodium butyrate subcutaneously for 14 days. At day 7, forelimb and both grip strength are measured as described in Example 4. BrdU was injected on days 12, 13 and 14. On days 13, 14 and 15, forelimb and both limb grip strength and in vivo tetanic force were tested, and an endurance test to determine max distance and max speed was performed using methods described in Example 4.
Mice were euthanized. The right tibialis anterior and gastrocnemius were collected, immersed in Tissue-TEK OCT and then flash frozen in a chilled isopentane bath precooled in liquid nitrogen and stored at −80° C. Tissue was sectioned and stained for Laminin to determine the cross sectional area (CSA) of muscle fibers, for eMyHC to measure new fiber formation and for BrdU to assess the proliferation rate. The left anterior tibialis and gastrocnemius were collected and flash frozen in liquid nitrogen for molecular analysis that include qPCR and western blot.

The subject of the next series is Aged human myoblasts. Description: Myogenic transcription factor expression in aged human myoblasts. To be noted: compared to fusion media. The class given is cell-based. On the procedure:
RNA was isolated from each well (RNeasy Mini Kit, Qiagen) and cDNA was obtained by reverse-transcription (High Capacity Reverse Transcription Kit, Thermo Fisher Scientific). Real-time quantitative PCR was performed using QuantStudio3 (Thermo Fisher).
Aged human myoblasts were cultured in well plates. […] Cells that had been cultured with IGF2 had increases in levels of MYOG at 48 hours and levels of MYOD at 72 hours.

In another series the test system is human myoblast cells. Description: Human myoblast differentiation (% eMyHC area), IGF2 and/or sodium butyrate. The class given is cell-based. The following applies: IGF2 0.015 ug/mL, 96 h (FIG. 3B/3C). On the procedure: Human myoblast cells were treated with either PBS (vehicle), IGF2 (15 ng/mL), sodium butyrate, or IGF2 and sodium butyrate. Fresh media was added every 24 hours. After 96 hours, cells were pulsed for 2-5 hours with EdU (30 uM), ethanol fixed, stained with Hoescht 3342, immunostained for proliferation—as measured by the percent of cells staining positive for EdU (% EdU)-, and immunostained for differentiation—as measured by the increase in cellular area staining positive for embryonic myosin heavy chain (% eMyHC) relative to the negative controls, which received media and vehicle only. The total area of eMyHc positive cells was analyzed, and treated cells were compared to cells treated with the vehicle alone. […] Significance was determined by a p-value less than 0.05 by the one-way ANOVA Tukey Honest Significant Difference test.
FIG. 3C Bar graph quantitation of % Area eMyHC+ human myoblast in response to indicated treatment compared to IGF2 (15 ng/mL). Myoblast were cultured 96 h in the presence of IGF2 at indicated dose. Fresh media and IGF2 was added every 24 h.
Human myoblast cells were treated with either PBS (vehicle), IGF2 (15 ng/mL), sodium butyrate, or IGF2 and sodium butyrate. Fresh media was added every 24 hours. After 48 hours, cells were pulsed for 2-5 hours with EdU (30 uM), ethanol fixed, stained with Hoescht 3342, immunostained for proliferation […] as measured by the percent of cells staining positive for EdU (% EdU)-, and immunostained for differentiation—as measured by the increase in cellular area staining positive for embryonic myosin heavy chain (% eMyHC) relative to the negative controls, which received media and vehicle only.
Significance was determined by a p-value less than 0.05 by the one-way ANOVA Tukey Honest Significant Difference test.

Series [2] in a line: Pharmacokinetics after intravenous injection in mice. The following applies: mice 10-12 weeks old, dose 10 mg/kg (HSA-IGF2R61A), 600 ug/kg (IGF2), Non-Compartment Analysis. It is filed as in vivo. On the procedure:
Murine pharmacokinetics (PK) represents the absorption, distribution, metabolism, and elimination of drugs from the body. The pharmacokinetic profile of the therapeutic polypeptides were determined in mice (10-12 weeks old). Mice were fed ad libitum and housed under controlled conditions of lighting (12-hour light/12-hour dark) and temperature (22-24° C.). Mice were allowed to acclimate for 3 days prior to the initiation of the experiment. Intravenous (IV) injection in 10-12 weeks old mice. Engineered mitogenic polypeptides concentrations in the samples were measured by ELISA. Various pharmacokinetics will be calculated as well as the absorption/elimination dynamics following different routes of administration.

In series [3] the target is Insulin Degrading Enzyme (IDE) (Homo sapiens, UniProt P14735). To be noted: Malito et al. Cell Mol Life Sci. 2008; read-out: affinity of IDE for IGF2 as a substrate; cited from earlier work.

For the substance “IGF2: Human IGF2 polypeptide, amino acids 25 to 91 of SEQ ID NO. 32 (i.e. SEQ ID NO. 29)”, the “% eMyHC area” value with DM1 human myoblast cells is recorded as 5.49%. Further, in series [1], the bothlimb grip strength result is recorded as “effective at improving”, the forelimb grip strength result is listed as “effective at improving”, the muscle weight result was “effective at improving” and the total work result is on record as “effective at improving”. In series [1], the treadmill running distance entry is given as “effective at improving” and the “treadmill running time to exhaustion” value is “effective at improving”. In addition, in the series with Aged human myoblasts (48 h), the “MYF5 −48 h, fold change” value is given as 0.409 and the “MYOD1 −48 h, fold change” value was determined as 0.519. In addition, in the series on Aged human myoblasts (72 h), the “MYF5 −72h, fold change” value is given as 0.708 and the “MYOG −72 h, fold change” value is 0.018. Moreover, the “% eMyHC” value in the series on human myoblast cells came out at 10.843%. In series [2], this substance registered a Half-life of 2.85 h. Besides, the Kd in series [3] was approximately 100 nM.
